Experimental data as given in ChEMBL document CHEMBL2069276, “Identification of a novel serum and glucocorticoid regulated kinase-1 (SGK1) ligand from virtual screening” (Bioorg Med Chem Lett, 2012).
Substitutions are numbered along the chain they refer to. The source made the active and inactive calls. The rule behind the calls is not given here.

Columns and labels:
[1] = target: T1, Serine/threonine-protein kinase Sgk1 (Homo sapiens) (UniProt O00141); assay: Inhibition of constitutively active SGK1 expressed in human HEK293 cells assessed as inhibition of FOXO3a phosphorylation at Thr 32 after 40 hrs; format: cell-based
T1 sequence (whole entry): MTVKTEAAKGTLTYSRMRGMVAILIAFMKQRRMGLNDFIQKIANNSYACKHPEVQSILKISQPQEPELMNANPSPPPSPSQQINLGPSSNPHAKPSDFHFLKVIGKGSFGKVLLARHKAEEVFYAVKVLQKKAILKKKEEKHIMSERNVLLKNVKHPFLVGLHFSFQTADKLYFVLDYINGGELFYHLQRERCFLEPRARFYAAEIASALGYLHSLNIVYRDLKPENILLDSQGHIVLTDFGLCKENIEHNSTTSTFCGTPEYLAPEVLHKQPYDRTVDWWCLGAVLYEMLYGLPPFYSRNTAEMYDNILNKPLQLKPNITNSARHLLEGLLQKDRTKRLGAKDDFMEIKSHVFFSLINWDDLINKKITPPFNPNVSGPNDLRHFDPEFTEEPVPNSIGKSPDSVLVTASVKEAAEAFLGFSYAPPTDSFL

[2] = tested on: T2, Serine/threonine-protein kinase Sgk1 (Homo sapiens), O00141 [S422D]; assay: Inhibition of SGK1 S422D mutant expressed in human HEK293 cells assessed as inhibition of FOXO3a phosphorylation at Thr 32 after 40 hrs; format: cell-based
T2 sequence (whole entry): T1 sequence (whole entry) with S422D

[3] = tested on: HEK293; assay: Induction of vacuolization in human HEK293 cells at >1 uM; format: cell-based
[4] = tested on: T2, Serine/threonine-protein kinase Sgk1 (Homo sapiens), O00141 [S422D]; assay: Inhibition of SGK1 S422D mutant expressed in human HEK293 cells assessed as inhibition of FOXO3a phosphorylation at Thr 32 at 100 uM after 40 hrs; format: cell-based
[5] = target: T1, Serine/threonine-protein kinase Sgk1 (Homo sapiens); assay: Inhibition of constitutively active SGK1 expressed in human HEK293 cells assessed as inhibition of FOXO3a phosphorylation at Thr 32 at 100 uM after 40 hrs; format: cell-based
[6] = tested on: HEK293; assay: Induction of vacuolization in human HEK293 cells up to 100 uM; format: cell-based
[7] = target: T3, Serine/threonine-protein kinase Sgk1 (Homo sapiens, UniProt O00141); assay: Inhibition of human recombinant SGK1
T3 sequence (O00141 whole entry): T1 sequence (whole entry)

O=C(O)c1ccc(-c2c[nH]c3ncc(-c4ccccc4)cc23)cc1C1CCCC1 [GSK-650394]
inhibition [1]: Dose-dependent effect | inhibition [2]: Dose-dependent effect | Activity [3]: Toxic

COc1ccc(NC(=O)Cc2nc(-c3ccc([N+](=O)[O-])cc3)cs2)cc1
inhibition [4]: Active | inhibition [5]: Active | Activity [6]: Non-toxic | IC50 [7]: 60 µM
